From the NIST ThermoML archive (doi:10.1016/j.jct.2010.12.021)

Experiment: molar heat capacity at constant pressure
Conditions: 101.33 kPa, Small sample (50 mg) DSC

CCCCCC[n+]1cccc2ccccc21.O=S(=O)([N-]S(=O)(=O)C(F)(F)F)C(F)(F)F [1-hexylquinolinium bis(trifluoromethylsulfonyl)amide]
Conditions	molar heat capacity at constant pressure [J/K/mol]
283.12 K, Crystal	420.81
283.72 K, Crystal	421.99
284.32 K, Crystal	423.19
284.92 K, Crystal	424.39
285.52 K, Crystal	425.58
286.12 K, Crystal	426.78
286.72 K, Crystal	427.94
287.32 K, Crystal	429.07
287.92 K, Crystal	430.21
288.52 K, Crystal	431.37
289.12 K, Crystal	432.53
289.72 K, Crystal	433.71
290.32 K, Crystal	434.96
290.92 K, Crystal	436.29
291.52 K, Crystal	437.63
292.12 K, Crystal	439.04
292.72 K, Crystal	440.54
293.32 K, Crystal	442.04
293.92 K, Crystal	443.6
294.52 K, Crystal	445.19
295.12 K, Crystal	446.81
295.72 K, Crystal	448.46
296.32 K, Crystal	450.18
296.92 K, Crystal	451.92
297.52 K, Crystal	453.71
298.12 K, Crystal	455.57
298.72 K, Crystal	457.56
299.32 K, Crystal	459.55
299.92 K, Crystal	461.52
300.52 K, Crystal	463.69
301.12 K, Crystal	465.97
301.72 K, Crystal	468.26
302.32 K, Crystal	470.81
302.92 K, Crystal	473.57
303.52 K, Crystal	476.39
304.12 K, Crystal	479.52
304.73 K, Crystal	483.2
305.33 K, Crystal	487.13
305.93 K, Crystal	491.57
306.53 K, Crystal	497.37
307.13 K, Crystal	504.13
307.72 K, Crystal	510.47
308.32 K, Crystal	518.68
308.92 K, Crystal	531.59
309.52 K, Crystal	546.05
310.12 K, Crystal	573.74
310.72 K, Crystal	653.81
311.32 K, Crystal	795.64
311.92 K, Crystal	921.44
312.51 K, Crystal	1266.8
313.09 K, Crystal	2288.5
313.66 K, Crystal	3477.3
314.23 K, Crystal	4856
314.8 K, Crystal	6301.5
315.37 K, Crystal	7631.8
315.94 K, Crystal	9002.3
316.54 K, Crystal	9157.6
317.17 K, Liquid	7971.7
317.8 K, Liquid	6765.5
318.43 K, Liquid	5315.4
319.06 K, Liquid	3937.3
319.69 K, Liquid	2716.7
320.31 K, Liquid	1646.2
320.92 K, Liquid	1124.2
321.52 K, Liquid	783.96
322.12 K, Liquid	605.73
322.72 K, Liquid	578.47
323.33 K, Liquid	579.09
323.93 K, Liquid	579.53
324.53 K, Liquid	579.5
325.13 K, Liquid	579.81
325.73 K, Liquid	580.31
326.33 K, Liquid	580.35
326.93 K, Liquid	580.48
327.53 K, Liquid	580.91
329.93 K, Liquid	582.05
330.53 K, Liquid	582.3
331.13 K, Liquid	582.61
331.73 K, Liquid	582.85
332.33 K, Liquid	583.14
332.93 K, Liquid	583.5
333.53 K, Liquid	583.82
334.13 K, Liquid	584.2
334.73 K, Liquid	584.61
335.33 K, Liquid	585.06
335.93 K, Liquid	585.62
336.53 K, Liquid	586.11
337.13 K, Liquid	586.52
337.73 K, Liquid	586.92
338.33 K, Liquid	587.33
338.93 K, Liquid	587.69
339.53 K, Liquid	587.94
340.13 K, Liquid	588.08
340.73 K, Liquid	588.35
341.33 K, Liquid	588.62
341.93 K, Liquid	588.83
342.54 K, Liquid	589.03
343.13 K, Liquid	589.23
343.73 K, Liquid	589.47
344.33 K, Liquid	589.68
344.93 K, Liquid	589.8
345.53 K, Liquid	589.91
346.13 K, Liquid	590.01
346.73 K, Liquid	590.17
347.33 K, Liquid	590.33
347.93 K, Liquid	590.52
348.53 K, Liquid	590.79
349.13 K, Liquid	591.11
349.73 K, Liquid	591.46
350.33 K, Liquid	591.81
350.93 K, Liquid	592.11
351.53 K, Liquid	592.4
352.13 K, Liquid	592.64
352.73 K, Liquid	592.89
353.33 K, Liquid	593.12
353.93 K, Liquid	593.32
354.53 K, Liquid	593.58
355.13 K, Liquid	593.86
355.73 K, Liquid	594.11
356.33 K, Liquid	594.37
356.93 K, Liquid	594.62
357.53 K, Liquid	594.9
358.13 K, Liquid	595.2
358.73 K, Liquid	595.42
359.33 K, Liquid	595.58
359.93 K, Liquid	595.78
360.53 K, Liquid	595.96
361.13 K, Liquid	596.12
361.73 K, Liquid	596.19
362.33 K, Liquid	596.29
362.93 K, Liquid	596.51
363.53 K, Liquid	596.79
364.13 K, Liquid	597.06
364.73 K, Liquid	597.35
365.33 K, Liquid	597.68
365.93 K, Liquid	598.06
366.53 K, Liquid	598.36
367.13 K, Liquid	598.59
367.73 K, Liquid	598.82
368.33 K, Liquid	599
368.93 K, Liquid	599.12
369.53 K, Liquid	599.24
370.13 K, Liquid	599.38
